Among the data in PubChem BioAssay (NCI) are TGI and GI50 values, retold here.

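A five-concentration, 48-hour dose response in 96-well plates underlies each endpoint, interpolated linearly between surrounding concentrations. GI50: concentration for 50% inhibition of growth. TGI denotes the concentration required for complete inhibition of growth.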

Some test systems named below: CCRF-CEM leukemia; EKVX NSCLC; HT29 colon; KM12 colon; MDA-MB-231 breast; NCI-H23 lung; NCI-H460 lung; OVCAR-5 ovarian; SK-MEL-2 melanoma; SK-MEL-5 melanoma.
Assay in all cases: NCI-60 cell line screen, 48 h

For `CCCCCCCCCCCCCCCC(=O)OCC1OC(n2ccc(N)nc2=O)C(O)C1O` (centres undefined), the TGI with CCRF-CEM leukemia is 8.85 µM; in the assay with EKVX NSCLC, over 100 µM; in the assay on HT29 colon, over 100 µM; with KM12 colon, over 100 µM; with MDA-MB-231 breast, over 100 µM; in the assay with NCI-H23 lung, over 41.6 µM. For the same compound, the TGI in the assay with NCI-H460 lung was over 40.6 µM; in the assay on OVCAR-5 ovarian, over 100 µM; in the assay with SK-MEL-2 melanoma it was over 100 µM; in the assay with SK-MEL-5 melanoma, over 100 µM.

Take `C=C(CC1(CC(=C)c2ccc(C(=O)O)cc2)C(=O)N(C)C(=O)N(C)C1=O)c1ccc(C(=O)O)cc1`: the GI50 is 65.2 µM in the assay on CCRF-CEM leukemia; over 100 µM with EKVX NSCLC; 48.7 µM in the assay on HT29 colon; over 100 µM in the assay on KM12 colon; over 100 µM in the assay with MDA-MB-231 breast; over 100 µM in the assay on NCI-H23 lung. Further, the GI50 in the assay on NCI-H460 lung is over 100 µM; in the assay with OVCAR-5 ovarian, 43.6 µM; with SK-MEL-2 melanoma, over 100 µM; in the assay on SK-MEL-5 melanoma it was 73.1 µM. Further, the TGI in the assay on CCRF-CEM leukemia, in the assay on EKVX NSCLC, in the assay with HT29 colon, in the assay with KM12 colon, in the assay with MDA-MB-231 breast and with NCI-H23 lung was over 100 µM each time. For the same compound, the TGI in the assay with NCI-H460 lung, with OVCAR-5 ovarian, in the assay on SK-MEL-2 melanoma and in the assay with SK-MEL-5 melanoma was over 100 µM in each case.

With `O=C(CN=Cc1cccs1)CSC(c1ccccc1)c1ccccc1`, the GI50 with CCRF-CEM leukemia was 20.8 µM; in the assay with EKVX NSCLC, 26.2 µM; with HT29 colon, 27.7 µM; with KM12 colon, 21 µM; with MDA-MB-231 breast, 24.5 µM; in the assay with NCI-H23 lung, 29.2 µM. The GI50 was 24.8 µM with NCI-H460 lung, 44.3 µM with OVCAR-5 ovarian, 19 µM in the assay on SK-MEL-2 melanoma and 15.6 µM in the assay with SK-MEL-5 melanoma. Besides, the TGI is over 100 µM in the assay with CCRF-CEM leukemia; 96.9 µM with EKVX NSCLC; 99.2 µM in the assay on HT29 colon; 52.5 µM in the assay on KM12 colon; 95.6 µM with MDA-MB-231 breast; over 100 µM with NCI-H23 lung. Also, the TGI in the assay with NCI-H460 lung was 70.1 µM; in the assay with OVCAR-5 ovarian, over 100 µM; in the assay on SK-MEL-2 melanoma, 34.8 µM; in the assay with SK-MEL-5 melanoma, 29 µM.

On to `C=C(C)[C@@H]1CCC[C@]2(C(=O)O)CC[C@]3(C)[C@@H](CC[C@@H]4[C@@]5(C)C/C(=C/c6ccncc6)C(=O)C(C)(C)[C@@H]5CC[C@]43C)[C@@H]12`, for which the GI50 in the assay on CCRF-CEM leukemia was 3.16 µM; with EKVX NSCLC it was 3.2 µM; with HT29 colon, 2.69 µM; in the assay on KM12 colon, 1.8 µM; in the assay with MDA-MB-231 breast, 3.05 µM; with NCI-H23 lung it was 3.33 µM. The GI50 is 1.87 µM with NCI-H460 lung, 2.52 µM in the assay with OVCAR-5 ovarian, 2.59 µM in the assay with SK-MEL-2 melanoma and 1.96 µM in the assay on SK-MEL-5 melanoma. Moreover, the TGI in the assay on CCRF-CEM leukemia was over 100 µM; in the assay on EKVX NSCLC it was 46.3 µM; with HT29 colon it was 9.5 µM; with KM12 colon, 3.87 µM; in the assay with MDA-MB-231 breast it was 24.3 µM; in the assay on NCI-H23 lung it was 12.9 µM. Besides, the TGI is 4.45 µM in the assay on NCI-H460 lung, 11.9 µM in the assay with OVCAR-5 ovarian, 6.72 µM in the assay on SK-MEL-2 melanoma and 4.51 µM in the assay with SK-MEL-5 melanoma.

As to `COC1C(CO)OC(n2c3ccccc3c3c4c(c5c6ccccc6[nH]c5c32)C(=O)NC4=O)C(O)C1OC(=O)C(N)CCCCN` (centres undefined), the GI50 is 0.23 µM in the assay with CCRF-CEM leukemia; 1.69 µM in the assay on EKVX NSCLC; 2.65 µM with HT29 colon; 0.499 µM in the assay with KM12 colon; 0.985 µM with MDA-MB-231 breast; 2.79 µM in the assay on NCI-H23 lung. Further, the GI50 in the assay with NCI-H460 lung is 3.64 µM; in the assay on OVCAR-5 ovarian, 3.12 µM; in the assay on SK-MEL-2 melanoma, 1.93 µM; in the assay on SK-MEL-5 melanoma, 0.208 µM. Moreover, the TGI with CCRF-CEM leukemia was over 50 µM; in the assay on EKVX NSCLC, 8.86 µM; in the assay with HT29 colon, over 50 µM; with KM12 colon it was 4.13 µM; in the assay on MDA-MB-231 breast it was 8 µM; in the assay on NCI-H23 lung, over 50 µM. The TGI in the assay on NCI-H460 lung is 27.1 µM; with OVCAR-5 ovarian it was over 50 µM; in the assay with SK-MEL-2 melanoma, 9.91 µM; with SK-MEL-5 melanoma it was 0.838 µM.

In the case of `Cc1cc2c(cc1Cl)SC1=NN(C)C(c3ccccc3O)N1S2(=O)=O` (centres undefined), the GI50 was 75.4 µM in the assay with CCRF-CEM leukemia; 81.7 µM in the assay with EKVX NSCLC; over 100 µM in the assay with HT29 colon; 57.7 µM with KM12 colon; 60.3 µM in the assay on MDA-MB-231 breast; over 100 µM in the assay with NCI-H23 lung. Moreover, the GI50 was 37.4 µM in the assay on NCI-H460 lung, 60 µM in the assay on OVCAR-5 ovarian, over 100 µM in the assay with SK-MEL-2 melanoma and 57 µM in the assay with SK-MEL-5 melanoma. For the same compound, the TGI in the assay with CCRF-CEM leukemia, in the assay with EKVX NSCLC, with HT29 colon, with KM12 colon, in the assay on MDA-MB-231 breast and in the assay with NCI-H23 lung was over 100 µM throughout. The TGI with NCI-H460 lung, with OVCAR-5 ovarian, in the assay with SK-MEL-2 melanoma and in the assay with SK-MEL-5 melanoma was over 100 µM in each case.

As for `O=[N+]([O-])O.[NH-]C1CCCCC1[NH-].[NH-]C1CCCCC1[NH-].[NH-]C1CCCCC1[NH-].[OH-].[OH-].[OH-].[Pt+4].[Pt+4].[Pt+4]` (centres undefined), the GI50 in the assay on CCRF-CEM leukemia was 0.193 µM; in the assay with EKVX NSCLC, 30.1 µM; in the assay with HT29 colon, 0.0889 µM; in the assay on KM12 colon it was 4.05 µM; with MDA-MB-231 breast it was 4.01 µM; with NCI-H23 lung it was 0.359 µM. Moreover, the GI50 in the assay on NCI-H460 lung is 0.241 µM; in the assay with OVCAR-5 ovarian it was 2.03 µM; in the assay with SK-MEL-2 melanoma, 2.05 µM; with SK-MEL-5 melanoma, 0.0363 µM. In addition, the TGI with CCRF-CEM leukemia was 19.2 µM; in the assay on EKVX NSCLC, over 100 µM; in the assay on KM12 colon, over 100 µM; in the assay on MDA-MB-231 breast, over 64.4 µM; in the assay with NCI-H23 lung it was 4.7 µM; with NCI-H460 lung it was 7.07 µM. For the same compound, the TGI was 93.8 µM with OVCAR-5 ovarian, 30.5 µM in the assay with SK-MEL-2 melanoma and 1 µM in the assay with SK-MEL-5 melanoma.

Take `CC(=O)Nc1ccc(-n2cnc3cc(-c4ccc(OCCN5CCCCC5)cc4)ccc32)cc1`: the GI50 in the assay with CCRF-CEM leukemia is 6.57 µM; in the assay with EKVX NSCLC it was 7.88 µM; in the assay on HT29 colon it was 1.12 µM; in the assay with KM12 colon it was 0.358 µM; with MDA-MB-231 breast it was 5.33 µM; with NCI-H23 lung it was 5.07 µM. For the same compound, the GI50 in the assay on NCI-H460 lung was 1.49 µM; with OVCAR-5 ovarian it was 6.22 µM; in the assay with SK-MEL-2 melanoma, 5.81 µM; in the assay with SK-MEL-5 melanoma, 5.22 µM. For the same compound, the TGI with CCRF-CEM leukemia worked out at 23.9 µM; with EKVX NSCLC, 28 µM; with HT29 colon, 3.92 µM; with KM12 colon, 5.76 µM; in the assay with MDA-MB-231 breast it was 13 µM; in the assay with NCI-H23 lung it was 11.6 µM. Besides, the TGI in the assay with NCI-H460 lung amounted to 5.3 µM; with OVCAR-5 ovarian it was 14.6 µM; in the assay with SK-MEL-2 melanoma, 11.5 µM; in the assay on SK-MEL-5 melanoma, 9.72 µM.
